Test results from ChEMBL document CHEMBL1201862, “PubChem BioAssay data set” (2004).
Each block holds one compound with its values, some of them ahead of it. Activity calls are given as the source filed them.

Experiments:
[1] = molecular target: DNA dC->dU-editing enzyme APOBEC-3A (Homo sapiens, UniProt P31941); test: A3A deaminase inhibition for selectivity – biochemical, dose response (AID 504722); format: functional
[2] = molecular target: T1, Sentrin-specific protease 6 (Homo sapiens, UniProt Q9GZR1); format: functional;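 also: Luminescence-based dose-response confirmatory assay of SENP6 inhibition, following up an ultra-high-throughput screen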
T1 sequence (Q9GZR1 whole entry): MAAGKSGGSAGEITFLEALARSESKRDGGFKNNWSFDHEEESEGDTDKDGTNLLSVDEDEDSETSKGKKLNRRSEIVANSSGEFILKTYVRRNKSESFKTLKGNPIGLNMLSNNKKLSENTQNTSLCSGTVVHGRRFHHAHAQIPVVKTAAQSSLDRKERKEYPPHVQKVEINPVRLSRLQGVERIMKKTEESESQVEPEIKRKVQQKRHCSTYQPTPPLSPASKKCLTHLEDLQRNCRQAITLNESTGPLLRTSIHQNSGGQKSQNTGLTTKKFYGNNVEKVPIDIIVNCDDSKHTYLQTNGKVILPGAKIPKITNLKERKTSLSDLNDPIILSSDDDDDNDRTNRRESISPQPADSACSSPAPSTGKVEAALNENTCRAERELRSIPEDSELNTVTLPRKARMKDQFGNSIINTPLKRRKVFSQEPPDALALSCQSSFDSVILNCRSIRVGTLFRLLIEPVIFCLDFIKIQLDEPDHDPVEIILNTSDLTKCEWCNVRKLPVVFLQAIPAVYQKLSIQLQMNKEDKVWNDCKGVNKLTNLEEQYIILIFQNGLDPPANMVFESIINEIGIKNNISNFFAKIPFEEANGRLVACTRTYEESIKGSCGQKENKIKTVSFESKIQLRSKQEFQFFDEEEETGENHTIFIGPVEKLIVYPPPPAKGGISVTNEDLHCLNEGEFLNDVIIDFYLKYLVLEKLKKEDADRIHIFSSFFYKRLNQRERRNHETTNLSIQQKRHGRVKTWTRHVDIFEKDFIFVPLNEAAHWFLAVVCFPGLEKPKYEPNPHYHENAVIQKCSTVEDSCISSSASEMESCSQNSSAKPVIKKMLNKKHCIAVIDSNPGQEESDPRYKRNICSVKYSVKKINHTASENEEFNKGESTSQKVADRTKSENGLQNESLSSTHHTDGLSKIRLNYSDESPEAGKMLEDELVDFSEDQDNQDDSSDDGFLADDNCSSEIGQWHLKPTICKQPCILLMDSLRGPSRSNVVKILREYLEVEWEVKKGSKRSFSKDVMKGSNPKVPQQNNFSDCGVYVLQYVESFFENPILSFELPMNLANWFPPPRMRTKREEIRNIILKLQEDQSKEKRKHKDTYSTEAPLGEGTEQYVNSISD

SUMO-activating enzyme = SUMO-activating enzyme (Homo sapiens, UniProt Q9UBT2); test: blockers of UBC9-mediated SUMO conjugation – biochemical, AlphaScreen, SUMOylation inhibitor project, confirmation (AID 2018); format: functional
[3] = molecular target: Voltage-gated N-type calcium channel alpha-1B subunit/Amyloid beta A4 precursor protein-binding family A member 1 (Homo sapiens, UniProt Q00975+Q02410); format: protein assay
Caspase-3 = molecular target: T2, Caspase-3 (Homo sapiens, UniProt P42574); test: Dose-response confirmation of uHTS inhibitor hits of Sentrin-Specific Protease 8 in a Caspase-3 Fluorescence assay.; format: functional
T2 sequence (P42574 whole entry): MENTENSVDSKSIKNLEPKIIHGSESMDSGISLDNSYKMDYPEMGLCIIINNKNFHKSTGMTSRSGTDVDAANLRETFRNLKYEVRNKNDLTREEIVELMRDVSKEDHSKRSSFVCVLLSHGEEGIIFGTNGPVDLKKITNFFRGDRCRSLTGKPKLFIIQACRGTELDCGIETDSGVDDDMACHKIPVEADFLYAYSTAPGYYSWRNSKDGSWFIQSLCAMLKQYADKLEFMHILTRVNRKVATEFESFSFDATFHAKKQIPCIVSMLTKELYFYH

[4] = molecular target: T3, Heat shock factor protein 1 (Mus musculus, UniProt P38532); test: decrease of HSF1-responsive luciferase luminescence – cell-based, NIH3T3, dose retest, confirmation (AID 2382); format: functional;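 also: NIH3T3 fibroblasts with HSF1-driven luciferase reporter stressed by proteasome inhibitor MG132; luminescence from HSF1-driven luciferase expression after 8 hours of MG132 stress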
T3 sequence (P38532 whole entry): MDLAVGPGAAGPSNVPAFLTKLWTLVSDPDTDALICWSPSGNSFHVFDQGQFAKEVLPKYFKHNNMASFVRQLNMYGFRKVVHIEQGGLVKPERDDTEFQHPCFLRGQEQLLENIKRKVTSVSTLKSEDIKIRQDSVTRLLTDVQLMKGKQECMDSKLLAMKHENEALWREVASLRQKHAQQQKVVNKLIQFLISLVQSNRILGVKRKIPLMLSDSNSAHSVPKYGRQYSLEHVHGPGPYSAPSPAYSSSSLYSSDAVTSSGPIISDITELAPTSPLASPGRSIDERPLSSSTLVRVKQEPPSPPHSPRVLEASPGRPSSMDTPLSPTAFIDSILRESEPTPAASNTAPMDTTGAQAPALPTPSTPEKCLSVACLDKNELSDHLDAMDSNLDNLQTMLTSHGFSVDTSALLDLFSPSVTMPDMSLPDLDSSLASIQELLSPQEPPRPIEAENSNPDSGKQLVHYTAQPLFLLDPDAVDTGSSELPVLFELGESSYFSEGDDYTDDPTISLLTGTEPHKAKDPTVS

[5] = molecular target: G protein-coupled receptor kinase 5 (Homo sapiens, UniProt P34947); test: Navigating the Kinome. Panel member name: GPRK5; format: functional
[6] = molecular target: Tyrosine-protein kinase JAK2 (Homo sapiens, UniProt O60674); format: functional;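 also: JAK2 tested as one member of a kinase panel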
[7] = molecular target: Fibroblast growth factor receptor 1 (Homo sapiens, UniProt P11362); format: functional
[8] = molecular target: Vascular endothelial growth factor receptor 1 (Homo sapiens, UniProt P17948); format: functional;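 also: measured within a kinome-wide profiling panel, FLT1 as the panel member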
[9] = molecular target: Protein kinase C theta type (Homo sapiens, UniProt Q04759); test: Navigating the Kinome. Panel member name: PRKCQ; format: functional
[10] = molecular target: Cyclin-dependent kinase 8 (Homo sapiens, UniProt P49336); test: Navigating the Kinome. Panel member name: CDK8; format: functional
LIM domain kinase 1 = LIM domain kinase 1 (Homo sapiens, UniProt P53667); test: Navigating the Kinome. Panel member name: LIMK1; format: functional
[11] = molecular target: Proto-oncogene tyrosine-protein kinase receptor Ret (Homo sapiens, UniProt P07949); format: functional;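 also: measured within a kinome-wide profiling panel, RET as the panel member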
[12] = molecular target: Dual specificity protein kinase CLK2 (Homo sapiens, UniProt P49760); format: functional
[13] = molecular target: Tyrosine-protein kinase receptor TYRO3 (Homo sapiens, UniProt Q06418); format: functional;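 also: TYRO3 value obtained as one member of a kinome-wide profiling panel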
[14] = molecular target: Dual specificity tyrosine-phosphorylation-regulated kinase 1A (Homo sapiens, UniProt Q13627); format: functional;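 also: measured against DYRK1A as one member of a broad kinome profiling panel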

Sequence of LIM domain kinase 1 (P53667 whole entry, the tested form may be a part): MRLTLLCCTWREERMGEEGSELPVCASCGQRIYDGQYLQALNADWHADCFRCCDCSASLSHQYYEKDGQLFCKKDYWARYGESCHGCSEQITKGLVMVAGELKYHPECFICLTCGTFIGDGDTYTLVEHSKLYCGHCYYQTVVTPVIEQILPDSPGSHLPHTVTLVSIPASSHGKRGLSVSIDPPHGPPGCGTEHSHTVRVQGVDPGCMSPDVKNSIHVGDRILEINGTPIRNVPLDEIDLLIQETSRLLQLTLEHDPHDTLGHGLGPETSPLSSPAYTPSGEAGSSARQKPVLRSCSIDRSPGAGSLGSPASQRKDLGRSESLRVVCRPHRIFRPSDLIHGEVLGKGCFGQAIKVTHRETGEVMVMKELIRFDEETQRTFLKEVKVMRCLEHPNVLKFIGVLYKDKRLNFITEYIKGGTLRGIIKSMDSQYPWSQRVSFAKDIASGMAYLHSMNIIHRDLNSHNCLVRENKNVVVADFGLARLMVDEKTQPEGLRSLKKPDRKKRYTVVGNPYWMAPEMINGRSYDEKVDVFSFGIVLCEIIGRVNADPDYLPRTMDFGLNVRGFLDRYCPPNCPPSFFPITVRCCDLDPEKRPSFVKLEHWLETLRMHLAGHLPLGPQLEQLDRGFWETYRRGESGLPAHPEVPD
Sequence of Dual specificity protein kinase CLK2 (P49760 whole entry): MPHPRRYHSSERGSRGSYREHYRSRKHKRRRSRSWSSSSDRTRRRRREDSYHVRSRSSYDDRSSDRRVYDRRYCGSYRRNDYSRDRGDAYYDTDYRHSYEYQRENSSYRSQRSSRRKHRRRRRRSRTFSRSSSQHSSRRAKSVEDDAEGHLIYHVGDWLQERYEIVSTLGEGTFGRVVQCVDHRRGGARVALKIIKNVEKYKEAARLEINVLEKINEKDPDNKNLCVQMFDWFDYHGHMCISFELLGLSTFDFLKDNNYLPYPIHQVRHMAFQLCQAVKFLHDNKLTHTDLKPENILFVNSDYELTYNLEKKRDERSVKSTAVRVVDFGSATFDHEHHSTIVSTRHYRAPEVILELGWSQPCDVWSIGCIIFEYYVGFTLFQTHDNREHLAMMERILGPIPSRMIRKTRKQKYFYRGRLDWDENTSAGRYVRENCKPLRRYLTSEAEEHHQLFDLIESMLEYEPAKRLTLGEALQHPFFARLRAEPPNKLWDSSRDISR
Sequence of Cyclin-dependent kinase 8 (P49336 whole entry, the tested form may be a part): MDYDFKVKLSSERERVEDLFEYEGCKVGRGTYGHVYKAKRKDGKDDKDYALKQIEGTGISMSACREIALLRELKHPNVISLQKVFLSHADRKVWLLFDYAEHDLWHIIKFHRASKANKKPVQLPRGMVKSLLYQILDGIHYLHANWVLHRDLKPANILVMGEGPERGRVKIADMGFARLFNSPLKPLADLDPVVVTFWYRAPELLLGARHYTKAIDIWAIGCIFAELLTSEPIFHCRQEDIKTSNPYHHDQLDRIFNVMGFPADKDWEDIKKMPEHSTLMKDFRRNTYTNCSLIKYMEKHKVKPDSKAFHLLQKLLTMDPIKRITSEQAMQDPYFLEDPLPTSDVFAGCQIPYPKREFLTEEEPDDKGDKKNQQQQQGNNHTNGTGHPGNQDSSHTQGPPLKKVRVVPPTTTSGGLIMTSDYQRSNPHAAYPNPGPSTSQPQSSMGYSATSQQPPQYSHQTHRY
Sequence of Vascular endothelial growth factor receptor 1 (P17948 whole entry): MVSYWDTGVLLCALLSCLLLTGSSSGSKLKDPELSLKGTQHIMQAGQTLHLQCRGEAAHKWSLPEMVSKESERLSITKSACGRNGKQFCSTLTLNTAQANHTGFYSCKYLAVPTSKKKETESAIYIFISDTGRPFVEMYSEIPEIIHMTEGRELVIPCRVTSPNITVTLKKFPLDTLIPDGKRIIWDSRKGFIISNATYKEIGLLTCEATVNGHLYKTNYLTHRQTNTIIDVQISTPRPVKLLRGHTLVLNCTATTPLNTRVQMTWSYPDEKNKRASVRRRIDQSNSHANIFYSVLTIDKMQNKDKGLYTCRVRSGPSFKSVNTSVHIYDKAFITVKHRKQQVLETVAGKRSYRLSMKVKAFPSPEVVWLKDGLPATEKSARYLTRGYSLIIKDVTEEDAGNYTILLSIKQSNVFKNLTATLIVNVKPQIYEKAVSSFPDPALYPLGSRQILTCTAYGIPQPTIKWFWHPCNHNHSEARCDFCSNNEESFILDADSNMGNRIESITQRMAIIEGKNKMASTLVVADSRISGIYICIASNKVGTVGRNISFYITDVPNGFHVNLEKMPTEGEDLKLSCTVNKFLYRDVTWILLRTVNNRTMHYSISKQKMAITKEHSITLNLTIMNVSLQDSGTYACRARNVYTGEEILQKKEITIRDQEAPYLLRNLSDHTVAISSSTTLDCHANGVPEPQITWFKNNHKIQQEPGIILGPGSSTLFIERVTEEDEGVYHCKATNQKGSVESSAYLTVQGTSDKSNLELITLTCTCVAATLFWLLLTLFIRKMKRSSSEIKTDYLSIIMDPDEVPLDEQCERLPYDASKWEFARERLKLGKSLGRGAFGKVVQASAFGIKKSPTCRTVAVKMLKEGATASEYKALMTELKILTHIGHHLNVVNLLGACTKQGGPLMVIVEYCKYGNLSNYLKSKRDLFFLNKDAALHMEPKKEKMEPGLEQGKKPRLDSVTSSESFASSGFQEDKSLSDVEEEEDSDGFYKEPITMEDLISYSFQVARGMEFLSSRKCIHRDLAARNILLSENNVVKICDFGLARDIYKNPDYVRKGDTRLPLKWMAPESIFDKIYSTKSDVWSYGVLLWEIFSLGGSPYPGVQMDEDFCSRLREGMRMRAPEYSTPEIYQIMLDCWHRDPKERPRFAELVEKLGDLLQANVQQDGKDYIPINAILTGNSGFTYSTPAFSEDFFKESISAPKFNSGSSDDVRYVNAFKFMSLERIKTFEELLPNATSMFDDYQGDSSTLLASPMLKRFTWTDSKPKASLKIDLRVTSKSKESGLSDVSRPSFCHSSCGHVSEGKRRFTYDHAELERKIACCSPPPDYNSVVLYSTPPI
Sequence of Tyrosine-protein kinase receptor TYRO3 (Q06418 whole entry): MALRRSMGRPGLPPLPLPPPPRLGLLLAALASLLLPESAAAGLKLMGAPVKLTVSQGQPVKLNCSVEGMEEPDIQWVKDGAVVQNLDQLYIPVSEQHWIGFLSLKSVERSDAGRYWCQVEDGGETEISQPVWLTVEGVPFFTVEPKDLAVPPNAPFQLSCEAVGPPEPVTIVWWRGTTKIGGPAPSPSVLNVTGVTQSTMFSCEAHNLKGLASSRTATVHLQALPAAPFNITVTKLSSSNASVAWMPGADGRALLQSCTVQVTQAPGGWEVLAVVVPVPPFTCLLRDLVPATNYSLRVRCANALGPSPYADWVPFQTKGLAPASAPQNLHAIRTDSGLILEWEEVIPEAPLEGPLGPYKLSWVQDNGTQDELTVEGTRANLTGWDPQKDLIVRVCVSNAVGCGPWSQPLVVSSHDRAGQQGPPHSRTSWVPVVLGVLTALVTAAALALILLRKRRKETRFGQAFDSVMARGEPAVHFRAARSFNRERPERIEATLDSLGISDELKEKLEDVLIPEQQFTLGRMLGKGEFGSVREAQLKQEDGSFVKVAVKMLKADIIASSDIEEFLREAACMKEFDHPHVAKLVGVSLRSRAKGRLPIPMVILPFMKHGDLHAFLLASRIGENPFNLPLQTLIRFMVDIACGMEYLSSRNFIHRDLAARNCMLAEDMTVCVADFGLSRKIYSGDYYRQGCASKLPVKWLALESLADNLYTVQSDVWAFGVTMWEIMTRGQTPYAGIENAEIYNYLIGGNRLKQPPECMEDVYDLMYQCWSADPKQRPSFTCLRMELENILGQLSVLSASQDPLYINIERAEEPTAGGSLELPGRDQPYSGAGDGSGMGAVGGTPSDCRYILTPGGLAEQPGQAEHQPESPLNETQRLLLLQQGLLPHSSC
Sequence of Proto-oncogene tyrosine-protein kinase receptor Ret (P07949 whole entry): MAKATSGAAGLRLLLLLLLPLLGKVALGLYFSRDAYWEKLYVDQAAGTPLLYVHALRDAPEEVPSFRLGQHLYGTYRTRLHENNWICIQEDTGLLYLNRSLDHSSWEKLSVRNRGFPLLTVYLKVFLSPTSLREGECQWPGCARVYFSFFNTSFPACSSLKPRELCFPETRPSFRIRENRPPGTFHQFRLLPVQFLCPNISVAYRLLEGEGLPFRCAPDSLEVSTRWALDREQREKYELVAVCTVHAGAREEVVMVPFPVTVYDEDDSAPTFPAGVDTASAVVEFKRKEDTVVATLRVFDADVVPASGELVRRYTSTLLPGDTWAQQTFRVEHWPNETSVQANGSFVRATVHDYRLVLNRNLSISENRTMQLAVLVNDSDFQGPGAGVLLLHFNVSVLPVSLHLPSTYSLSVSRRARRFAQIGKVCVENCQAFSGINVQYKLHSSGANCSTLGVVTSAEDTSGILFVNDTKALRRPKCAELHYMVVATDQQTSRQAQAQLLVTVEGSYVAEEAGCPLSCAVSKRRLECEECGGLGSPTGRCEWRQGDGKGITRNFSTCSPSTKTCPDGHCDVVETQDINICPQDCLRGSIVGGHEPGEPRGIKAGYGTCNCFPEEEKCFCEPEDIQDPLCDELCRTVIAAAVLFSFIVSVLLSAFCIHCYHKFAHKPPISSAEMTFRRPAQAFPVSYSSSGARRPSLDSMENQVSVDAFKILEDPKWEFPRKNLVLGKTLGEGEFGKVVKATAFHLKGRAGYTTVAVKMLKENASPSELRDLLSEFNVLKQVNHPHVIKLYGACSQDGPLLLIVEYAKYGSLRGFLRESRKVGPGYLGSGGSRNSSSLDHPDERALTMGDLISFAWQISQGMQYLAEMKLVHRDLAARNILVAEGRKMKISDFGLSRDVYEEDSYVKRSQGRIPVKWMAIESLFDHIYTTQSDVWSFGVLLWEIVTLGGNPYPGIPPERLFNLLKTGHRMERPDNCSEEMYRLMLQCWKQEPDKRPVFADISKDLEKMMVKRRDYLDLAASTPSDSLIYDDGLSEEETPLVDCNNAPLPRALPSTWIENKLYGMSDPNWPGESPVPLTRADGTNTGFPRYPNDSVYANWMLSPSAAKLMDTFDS

Structure (SMILES): CC(=O)N(C1=C(Cl)C(=O)c2ccccc2C1=O)c1ccc(C(=O)O)cc1
- IC50 [1]: > 100 µM (inactive)
- IC50 [2]: 4.08 µM (active)
- IC50 (SUMO-activating enzyme): 3.77 µM (active)
- IC50 [3]: 3.35 µM (active)

Structure (SMILES): CC1(C)C=C2C(=NN(c3ccccc3)C(N)=C2C#N)CO1
- IC50 (Caspase-3): 1.09 µM (active)
- EC50 [4]: > 195 µM (not active)

- Ki [5]: > 3.98 µM (inactive)
- Ki [6]: > 2.51 µM (inactive)
- Ki [7]: > 3.98 µM (inactive)
- Ki [8]: > 3.98 µM (inactive)
- Ki [9]: > 2.51 µM (inactive)
- Ki [10]: > 3.98 µM (inactive)
- Ki (LIM domain kinase 1): > 3.16 µM (inactive)
- Ki [11]: 2.51 µM (active)
- Ki [12]: > 3.98 µM (inactive)
- Ki [13]: > 3.16 µM (inactive)
- Ki [14]: > 2 µM (inactive)
Structure (SMILES): Cc1ccc(-c2cc3nc(Br)cnc3[nH]2)cc1
